The values that follow come from EP2559435A1, “Rotigotine in the treatment of hemispatial neglect, stroke and deficits following stroke” (UCB Pharma GmbH, priority 2011, dated 2013).

SMILES strings stand for the structures. Where two headings read alike, the source gives them in different places.

One assay relates to neglect patients. To be noted: cited from earlier work.
The test system of assay [1] is patients with hernispatial neglect and unilateral weakness following right hemisphere stroke. Nature of the assay: Mesulam cancellation (visual search) task of hemispatial neglect, clinical trial. It is filed as in vivo. On the procedure:
(§1) A commercially available rotigotine TTS has been tested in a double-blind, randomised, placebo controlled trial of the dopamine agonist rotigotine in 16 patients aged over 18 years with hernispatial neglect and unilateral weakness following right hemisphere stroke.
(§2) Patients were assessed with a battery of standardised neglect tests, as well as with tests of working memory, selective and sustained attention and motor function. A replicated ABA double-blind, placebo-controlled N-of-1 randomised design (Edgington E, Onghena P. Randomization Tests (Statistics: a Series of Textbooks and Monographs). 4th ed. Chapman & Hall/CRC: 2007), which allows to evaluate the effectiveness of an intervention in small sample sizes. Each patient's performance was measured in three phases, each consisting of several assessment sessions: before treatment (phase A1), while receiving transdermal rotigotine (phase B) and after discontinuation of the drug - post treatment phase (phase A2). The exact duration of each phase was randomised across patients. Performance on rotigotine was compared with the pre-treatment baseline and post-treatment follow-up phases.
(§3) The effects of the drug were evaluated for the whole group of 16 patients, and, separately for two subgroups with different extent of involvement of the prefrontal cortex in the stroke lesion. The subgroups are defined according to the extent of involvement of the prefrontal cortex in the stroke lesion: a minimal prefrontal involvement subgroup (0%-15% of the prefrontal cortex affected) and an extensive prefrontal subgroup (33%-55% of the prefrontal cortex affected).
Phase A1 started on session 1 and its duration was randomised (across individuals) to between 5 and 9 days. Observations during this phase established the baseline performance. Phase B, when rotigotine was administered, could commence on day 6 to day 10, and its duration was a minimum of 7 and a maximum of 11 sessions. During treatment phase, a rotigotine 9 mg patch (4mg/24hr transdermal absorption) was applied daily and worn for 24 hours a day. Finally, phase A2, when patients were assessed after the discontinuation of rotigotine, was randomised to begin between sessions 13 and 17, and it lasted for the remaining 4 to 8 sessions.
Each patient was randomly assigned a pattern of onset and duration of the treatment and baseline phases, within the duration limits described above. In this example, the patient had 6 baseline assessments (phase A1, sessions 1-6), followed by 8 days on rotigotine (sessions 7-14) and 6 follow-up assessments (phase A2, sessions 15-20) after discontinuation of the drug. […] Mid-grey depicts any additional sessions in phases A1 and A2 when the patient received placebo patches. Some other possible permutations of pre-treatment, treatment and post-treatment phases within the constraints of the design are shown in figure 1b. The actual difference in performance between treatment (B) and the off-treatment phases (A1 and A2) was ranked against the differences between phases produced by all other possible combinations of treatment allocation, given the limits in phase onset and duration. In total, there were 15 possible permutations.
This visuospatial scanning test-further described in Mesulam, M.-M. Principles of Behavioural Neurology; tests of directed attention and memory (Davis, Philadelphia, 1985) - with a cluttered array of symbols is performed on A3 sheets. In this test visual target objects are identified among distracters; targets identified are marked by the participant (black circles in fig. 2). There was a 2 minutes time limit for this task. […] Furthermore, on rotigotine, there was an improvement in the spatial bias of the responses, measured as the proportion of the targets identified on the left when compared to those identified on the right. In the minimal prefrontal involvement subgroup, rotigotine had again a significant positive effect in the number of targets identified on the left. […]

Assay [2] shares this test system. Nature of the assay: Vertical Corsi spatial working memory task, clinical trial. It is filed as in vivo. To be noted: in some patients. On the procedure: as §1
as §2, with “Performance on rotigotine was compared with the pre-treatment baseline and post-treatment follow-up phases.” left out
(§4) Phase A1 started on session 1 and its duration was randomised (across individuals) to between 5 and 9 days. […] Finally, phase A2, when patients were assessed after the discontinuation of rotigotine, was randomised to begin between sessions 13 and 17, and it lasted for the remaining 4 to 8 sessions. […]

For assay [3] the test system is unchanged. Kind of assay: Touchscreen cancellation task of hemispatial neglect, clinical trial. It is filed as in vivo. To be noted: group of all 16 patients; on rotigotine vs before treatment onset. On the procedure: as §1
as §2, with “Performance on rotigotine was compared with the pre-treatment baseline and post-treatment follow-up phases.” left out
as §4

Assay [4] shares this test system. Kind of assay: Motricity Index (motor function on the affected side), clinical trial. The format is in vivo. To be noted: in some patients. On the procedure:
as §1
as §2, with “Performance on rotigotine was compared with the pre-treatment baseline and post-treatment follow-up phases.” left out
as §4

Assay [5] shares this test system. Nature of the assay: Selective and sustained attention (vigilance) task, clinical trial. It is filed as in vivo. On the procedure: as §1, §2, §3
Phase A1 started on session 1 and its duration was randomised (across individuals) to between 5 and 9 days. Observations during this phase established the baseline performance. […] Finally, phase A2, when patients were assessed after the discontinuation of rotigotine, was randomised to begin between sessions 13 and 17, and it lasted for the remaining 4 to 8 sessions.
The subject had to identify high- or low- sallence targets among non targets on either side. % correct and reaction times are measured, further described in Barcelo et al. Nature Neuroscience 2000 3:399-403.
Participants detected targets (inverted triangles) among sequences of distractors (upright triangles) randomly presented to the ipsilesional and contralesional visual fields. […]
As a measure of selective attention, the ratio of the reaction time (RT) to high visual salience targets over the RT to low visual salience targets was used. Furthermore, using this task, sustained attention was quantified over time, by measuring the difference in RT and % correct responses between the first and the second half of each experimental session. […]

On to `NC12CC3CC(CC(C3)C1)C2` [amantadine], for which, in the assay on neglect patients (small-scale trial in four neglect patients (Buxbaum et al. 2007)), the “effect on hemispatial neglect” value is listed as “did not demonstrate any beneficial effect”.

With `CN1CCc2cccc3c2[C@H]1Cc1ccc(O)c(O)c1-3` [Apomorphine], the “effect on hemispatial neglect” value with neglect patients (four neglect patients tested (Geminiani et al. 1998)) was “transient improvement in three out of four neglect patients”.

In the case of `CCCN(CCc1cccs1)C1CCc2c(O)cccc2C1` (single isomer, unassigned; (-)) [rotigotine, (-)-5,6,7,8-tetrahydro-6-[propyl-[2-(2thienyl)ethyl]-amino]-1-naphthalenol], in assay [1] (entire group of 16 patients, on rotigotine vs pre- and post-treatment phases averaged or post-treatment phase alone), the “number of targets found on the left side” value was “significantly higher”. Besides, in assay [1] (entire group of 16 patients, rotigotine 9 mg patch (4mg/24hr) daily, actual treatment allocation higher than mean difference of all possible permutations), the “difference on- and off-treatment in the number of targets found on the left side relative to baseline” value is 12.8%. The “effect size: less rightward bias relative to baseline (spatial bias in visual search)” value in assay [1] (entire group of 16 patients, rotigotine 9 mg patch (4mg/24hr) daily, actual treatment allocation in comparison to all possible permutations) amounted to 8.1%. Besides, in assay [1] (entire group, on rotigotine vs post-treatment phase or both off-treatment phases), the “spatial bias in visual search” value is recorded as “improved significantly”. Moreover, the “decrease in the number of targets found in a smaller area on the right hand side” value in assay [1] (entire patient group, during treatment) is listed as “not statistically significant”. For the same molecule, the spatial bias result in assay [1] (extensive prefrontal group, on rotigotine) is reported as “improved significantly”. Moreover, the “number of left targets found” value in assay [1] (extensive prefrontal subgroup (33%-55% of prefrontal cortex affected), on rotigotine) is listed as “did not reach significance”; in assay [1] (minimal prefrontal subgroup (0%-15% of prefrontal cortex affected), on rotigotine) it was “significantly higher”. Also, the “number of targets identified in total” value in assay [1] (group of all 16 patients, on rotigotine) was “significantly larger number of targets”. For the same molecule, in assay [2], the “spatial working memory (spatial span)” value is recorded as “improved spatial working memory”. The targets identified entry in assay [3] was “more targets were identified”. Besides, in assay [4], the “motor function on the affected side (Motricity Index of the affected arm, leg and side)” value is “improved motor function on the affected side”. In addition, the “ratio of RT to high salience vs low salience targets” value in assay [5] (entire group, left sided targets, during treatment vs pre-treatment baseline) is reported as “significant increase”; in assay [5] (entire group, left sided targets, treatment vs post-treatment baseline or average of both off-treatment phases), “only marginal”; in assay [5] (extensive prefrontal subgroup, overall for both left and right-sided targets), “significant beneficial effect”; in assay [5] (minimal prefrontal subgroup (e.g. left sided targets, comparison with off-treatment average)), “no significant effect”.
